Reference: patent EP0118036A1, “Biologically active ketone derivative, preparation and use” (THE WELLCOME FOUNDATION LIMITED, priority 1983, dated 1984)
Structures can show the parent of a compound that is named as a salt.

Legend:
[1] = free base; cited from earlier work
[2] = Storage stability of tablets (Examples 3, 4, 10A, 10B); format: physicochemical; conditions: summary in words of Table II
Experimental: In order to compare the storage stability of the tablets of Examples 3 and 4 with similar tablets containing the hydrochloride salt of 2-tert-butylamino-3'-chloropropiophenone, tablets having the following compositions were prepared in an analogous manner to that described in Examples 3 and 4:-
The four sets of tablets (3, 4, 10A and 10B) were tested for stability. Testing was carried out on tablets: • (a) stored at 50°C in closed bottles; and • (b) stored at 37°C in open bottles under a relative humidity of 75%.
The results are summarised in the following Table II in which the data are assay values expressed as percentage of labeled strength of the active salt, and "mo." indicates month: […]

[3] = Stability of salts with conventional pharmaceutical carriers or excipients; format: physicochemical; conditions: tableting excipients, particularly magnesium stearate and stearic acid; result in words
From the text: It will be appreciated that, in order for the salts to be used in medical therapy, it is necessary to formulate them into pharmaceutical compositions suitable for administration to the patient. The formulation of such compositions entails the admixture or contacting of the salts with various pharmaceutical carriers or excipients. Examples of solid pharmaceutical compositions which are mentioned in British Specification 1,340,032 are tablets, cachets, capsules and suppositories. Of these various types of composition, tablets and capsules are particularly preferred forms as it is generally desired to administer the active compound by the oral route. […] The formulation of the salts of the free base in capsules also presents problems because gelatin, which is commonly used to make the capsule shell, is hydrophilic and therefore creates a humid environment within the capsule, which has a deleterious effect on the 2-tert-butylamino-3'chloropropiophenone salt present in the capsule. It will therefore be appreciated that considerable difficulty arose in finding a salt of 2-tert-butylamino-3'-chloropropiophenone which has sufficient stability when formulated in pharmaceutical compositions.
A further advantage of the maleate salt is that it is much less corrosive than, for example, the hydrochloride salt which tends to corrode apparatus used in its preparation and formulation. […]

[4] = tested on: tetrabenazine induced sedation; test: Antagonism of tetrabenazine induced sedation (modified Vernier method); format: in vivo, Mice; conditions: for Percent Antagonism of Tetrabenazine Induced Sedation: CD1 male mice, 35 mg/kg tetrabenazine hydrochloride ip
Experimental: Antagonism of tetrabenazine induced sedation was measured using a modification of the method of Vernier, et al., First Hahnemann Symposium on Psychosomatic Medicine, ed. Nodim and Moyer, pub. Lea and Febiger, Philadelphia, 1962.
Mice, three groups of 12 CD1 males each, were injected intraperitoneally (ip) with a solution of 2-tert-butylamino-3'-chlorogropiophenone hydrochloride (Cpd A) or 2-tert-butylamino-3'-chloropropiophenone maleate (Cpd B) or with saline. Thirty minutes later each of the mice was injected ip with a solution containing 35 mg/kg tetrabenazine hydrochloride. Thirty minutes after the injection of tetrabenazine each mouse was examined for its level of exploratory behavior which was scored on a modification of the arbitrary scale defined by Vernier, et al. The dose of tetrabenazine used was sufficient to cause 90 to 100 percent of the mice to remain motionless even when placed in a new environment. In the test results reported 100 percent would represent total reversal of tetrabenazine effects.
The doses of Cpd B are equivalent to the corresponding doses of Cpd A on a molar basis.

Charles River CD1 mice = test: 14-day oral (gavage) toxicity in mice; format: in vivo; conditions: 260 mg/kg per day for 14 days, gavage in 0.5 percent carboxymethylcellulose, four males and four females
Experimental: 2-Tert-butylamino-3'-chloropropiophenone maleate was administered by gavage in 0.5 percent carboxymethylcellulose to Charles River CD1 mice (four males and four females) at a dose of 260 mg/kg per day for 14 days.

[5] = Comparative bulk storage stability of salts of 2-tert-butylamino-3'-chloropropiophenone; format: physicochemical; conditions: bulk salt, result in words
From the text: The propiophenone moiety breaks down into hydroxyketones, a diketone and meta-chlorobenzoic acid. It is of course an important desideratum for : a pharmaceutical product that it should have a reasonably good bulk stability in order to avoid or reduce wastage resulting from decomposition of the active moiety during the period between its synthesis and its use in formulating the final dosage form.
Small amounts of various salts of 2-tert-butylamino-3'-chloropropiophenone were each placed in a clean borosilicate glass vial which was sealed with a Teflon-faced rubber closure. The samples were then placed in an oven maintained at 70°C (except for the formate which was stored at 75°C) and visual comparisons were made over a period of 1-3 days. The observations are recorded in the following Table I: […]

Compound: CC(NC(C)(C)C)C(=O)c1cccc(Cl)c1 (stereo not drawn) [2-tert-butylamino-3'-chloropropiophenone]
- pKa [1]: 8.5-9

Compound: CC(NC(C)(C)C)C(=O)c1cccc(F)c1 (stereo not drawn) [3'-fluoro analogue]
- pKa [1]: 8.5-9

Compound: CC(NC(C)(C)C)C(=O)c1cccc(Cl)c1 (stereo not drawn) [Cpd A, 2-tert-butylamino-3'-chlorogropiophenone hydrochloride]
- stability in the formulated tablets [2]: limited stability
- stability in association with conventional pharmaceutical carriers and excipients [3]: limited stability
- Percent Antagonism of Tetrabenazine Induced Sedation ([4]; dose 12.5 mg/kg (ip)): 17.5%
- Percent Antagonism of Tetrabenazine Induced Sedation ([4]; dose 25 mg/kg (ip)): 50%
- Percent Antagonism of Tetrabenazine Induced Sedation ([4]; dose 50 mg/kg (ip)): 62.5%

Compound: CC(NC(C)(C)C)C(=O)c1cccc(Cl)c1.O=C(O)/C=C\C(=O)O (stereo not drawn) [Cpd B, 2-tert-butylamino-3'-chloropropiophenone maleate]
- stability in the formulated tablets [2]: relatively stable
- stability in association with conventional pharmaceutical carriers and excipients [3]: advantageous stability characteristics
- survival (Charles River CD1 mice): All of the mice survived
- Percent Antagonism of Tetrabenazine Induced Sedation ([4]; dose 16.1 mg/kg (ip)): 27.5%
- Percent Antagonism of Tetrabenazine Induced Sedation ([4]; dose 32.2 mg/kg (ip)): 62.5%
- Percent Antagonism of Tetrabenazine Induced Sedation ([4]; dose 64.4 mg/kg (ip)): 60%
- antidepressant activity in the tetrabenazine-induced sedation test ([4]; rodents, result in words): good antidepressant activity

Compound: CC(NC(C)(C)C)C(=O)c1cccc(Cl)c1 (stereo not drawn) [napthalenesulphonate monohydrate]
- stability upon storage [5]: unstable upon storage
